Results reported in ChEMBL document CHEMBL5325486, “Synthesis of novobiocin derivatives and evaluation of their antigonococcal activity and pharmacokinetics” (Bioorg Med Chem, 2023).
In brackets after ≈: the same amount, converted by molar mass.

Key:
Staphylococcus aureus = experiment: Antibacterial activity against Staphylococcus aureus assessed inhibition of bacterial growth; assay type: functional
Neisseria gonorrhoeae = experiment: Antibacterial activity against resistant Neisseria gonorrhoeae assessed inhibition of bacterial growth; assay type: functional
[1] = Aqueous solubility of compound in neutral JP2 solution; assay type: physicochemical; settings: JP2 solution; read-out: solubility
[2] = Metabolic stability in mouse liver microsomes assessed as residual rate; assay type: ADME, Microsome
[3] = Effective permeability of compound by PAMPA assay; assay type: ADME; settings: read-out: Peff
[4] = Aqueous solubility of compound in acidic JP1 solution; assay type: physicochemical; settings: JP1 solution; read-out: solubility

SMILES	MIC50 (Staphylococcus aureus) [µg/mL]	MIC90 (Staphylococcus aureus) [µg/mL]	MIC50 (Neisseria gonorrhoeae) [µg/mL]	MIC90 (Neisseria gonorrhoeae) [µg/mL]	solubility [1] [µM]	Stability [2] [%]	Papp [3] [×10⁻⁶ cm/s]	solubility [4] [µM]
CO[C@@H]1[C@@H](OC(=O)c2ccc(C)[nH]2)[C@@H](O)[C@H](Oc2ccc3c(O)c(NC(=O)c4ccccc4)c(=O)oc3c2C)OC1(C)C	0.063 (≈ 0.106 µM)	0.125 (≈ 0.211 µM)	1 (≈ 1.69 µM)	1 (≈ 1.69 µM)				
CO[C@@H]1[C@@H](OC(=O)c2ccc(C)[nH]2)[C@@H](O)[C@H](Oc2ccc3c(O)c(NC(=O)c4c(C)ncn4CC=C(C)C)c(=O)oc3c2C)OC1(C)C	0.5 (≈ 0.752 µM)	0.5 (≈ 0.752 µM)	0.5 (≈ 0.752 µM)	0.5 (≈ 0.752 µM)				
CO[C@@H]1[C@@H](OC(=O)NOC(C)(C)C)[C@@H](O)[C@H](Oc2ccc3c(O)c(NC(=O)c4ccc(O)c(CC=C(C)C)c4)c(=O)oc3c2C)OC1(C)C	1 (≈ 1.46 µM)	1 (≈ 1.46 µM)	16 (≈ 23.4 µM)	64 (≈ 93.5 µM)				
CO[C@@H]1[C@@H](OC(=O)c2ccc(C)[nH]2)[C@@H](O)[C@H](Oc2ccc3c(O)c(NC(=O)c4cccc(N5CCN(C)CC5)c4)c(=O)oc3c2C)OC1(C)C	0.5 (≈ 0.724 µM)	0.5 (≈ 0.724 µM)	1 (≈ 1.45 µM)	1 (≈ 1.45 µM)				
C=CCONC(=O)O[C@H]1[C@@H](O)[C@H](Oc2ccc3c(O)c(NC(=O)c4ccc(O)c(CC=C(C)C)c4)c(=O)oc3c2C)OC(C)(C)[C@@H]1OC	0.125 (≈ 0.187 µM)	0.25 (≈ 0.374 µM)	1 (≈ 1.5 µM)	2 (≈ 2.99 µM)				
CO[C@@H]1[C@@H](OC(=O)c2ccc(C)[nH]2)[C@@H](O)[C@H](Oc2ccc3c(O)c(NC(=O)c4ccnc(N)c4)c(=O)oc3c2C)OC1(C)C	2 (≈ 3.29 µM)	2 (≈ 3.29 µM)	0.5 (≈ 0.822 µM)	1 (≈ 1.64 µM)				
CO[C@@H]1[C@@H](OC(=O)c2ccc(C)[nH]2)[C@@H](O)[C@H](Oc2ccc3c(O)c(NC(=O)c4ccnc(N(C)C)c4)c(=O)oc3c2C)OC1(C)C	0.5 (≈ 0.785 µM)	0.5 (≈ 0.785 µM)	0.5 (≈ 0.785 µM)	0.5 (≈ 0.785 µM)				
CO[C@@H]1[C@@H](OC(=O)c2cc(Cl)c(C)[nH]2)[C@@H](O)[C@H](Oc2ccc3c(O)c(NC(=O)c4ccc(O)c(CC=C(C)C)c4)c(=O)oc3c2C)OC1(C)C	0.063 (≈ 0.0886 µM)	0.125 (≈ 0.176 µM)	0.5 (≈ 0.703 µM)	1 (≈ 1.41 µM)				
CO[C@@H]1[C@@H](OC(=O)c2ccc(C)[nH]2)[C@@H](O)[C@H](Oc2ccc3c(O)c(NC(=O)c4cscn4)c(=O)oc3c2C)OC1(C)C	0.5 (≈ 0.834 µM)	0.5 (≈ 0.834 µM)	0.5 (≈ 0.834 µM)	0.5 (≈ 0.834 µM)				
CO[C@@H]1[C@@H](OC(=O)c2ccc[nH]2)[C@@H](O)[C@H](Oc2ccc3c(O)c(NC(=O)c4ccc(O)c(CC=C(C)C)c4)c(=O)oc3c2C)OC1(C)C	0.125 (≈ 0.189 µM)	0.25 (≈ 0.377 µM)	0.5 (≈ 0.754 µM)	1 (≈ 1.51 µM)				
CO[C@@H]1[C@@H](OC(=O)c2ccc(C)[nH]2)[C@@H](O)[C@H](Oc2ccc3c(O)c(NC(=O)c4ccnc(C)c4)c(=O)oc3c2C)OC1(C)C	0.5 (≈ 0.823 µM)	1 (≈ 1.65 µM)	0.25 (≈ 0.411 µM)	0.5 (≈ 0.823 µM)	71.8 (≈ 43.6 µg/mL)	120	0.349	55 (≈ 33.4 µg/mL)
CO[C@@H]1[C@@H](OC(=O)c2ccc(C)[nH]2)[C@@H](O)[C@H](Oc2ccc3c(O)c(NC(=O)CN(C)C)c(=O)oc3c2C)OC1(C)C	1 (≈ 1.74 µM)	2 (≈ 3.49 µM)	2 (≈ 3.49 µM)	4 (≈ 6.97 µM)	> 100			> 100
CO[C@@H]1[C@@H](OC(=O)c2ccc(C)[nH]2)[C@@H](O)[C@H](Oc2ccc3c(O)c(NC(=O)c4cn(C)c(CCC(C)C)n4)c(=O)oc3c2C)OC1(C)C	0.25 (≈ 0.375 µM)	0.25 (≈ 0.375 µM)	0.5 (≈ 0.75 µM)	1 (≈ 1.5 µM)				
CO[C@@H]1[C@@H](OC(=O)c2ccc(C)[nH]2)[C@@H](O)[C@H](Oc2ccc3c(O)c(NC(=O)CCN(C)C)c(=O)oc3c2C)OC1(C)C	2 (≈ 3.4 µM)	4 (≈ 6.81 µM)	16 (≈ 27.2 µM)	32 (≈ 54.5 µM)	> 100			> 100
CO[C@@H]1[C@@H](OC(=O)c2ccc(C)[nH]2)[C@@H](O)[C@H](Oc2ccc3c(O)c(NC(=O)c4c[nH]cn4)c(=O)oc3c2C)OC1(C)C	1 (≈ 1.72 µM)	1 (≈ 1.72 µM)	1 (≈ 1.72 µM)	1 (≈ 1.72 µM)				
CO[C@@H]1[C@@H](OC(=O)c2ccc(C)[nH]2)[C@@H](O)[C@H](Oc2ccc3c(O)c(NC(=O)c4cn(CC5CC5)cn4)c(=O)oc3c2C)OC1(C)C	0.5 (≈ 0.785 µM)	0.5 (≈ 0.785 µM)	0.5 (≈ 0.785 µM)	1 (≈ 1.57 µM)				
CO[C@@H]1[C@@H](OC(=O)c2ccc(C)[nH]2)[C@@H](O)[C@H](Oc2ccc3c(O)c(NC(=O)c4sc5nccn5c4C)c(=O)oc3c2C)OC1(C)C	0.5 (≈ 0.766 µM)	1 (≈ 1.53 µM)	0.5 (≈ 0.766 µM)	0.5 (≈ 0.766 µM)				
CO[C@@H]1[C@@H](NC(=O)c2ccc(C)[nH]2)[C@@H](O)[C@H](Oc2ccc3c(O)c(NC(=O)c4ccc(O)c(CC=C(C)C)c4)c(=O)oc3c2C)OC1(C)C	2 (≈ 2.96 µM)	2 (≈ 2.96 µM)	32 (≈ 47.4 µM)	64 (≈ 94.7 µM)				
